Source: publication PMC2857986 (Journal of the American Chemical Society, 2010)

Test: Gel formation and CD of expected cleavage fragments
Format: physicochemical

CD spectrum (secondary structure) (see supporting information): simple random coil signature
Substance: KSLSLS [MDP4a]
Gel formation / self-assembly (phosphate buffer, physiological pH, in words): no longer able to assemble and form insoluble aggregates
